Experimental data taken from BigSolDB 2.1.

O=C1c2cccc(Cl)c2C(=O)N1c1ccccc1
solubility (mole fraction) (in 1,4-dioxane, 288.15 K): 0.00825 | solubility (mole fraction) (in 1,4-dioxane, 290.65 K): 0.00898 | solubility (mole fraction) (in 1,4-dioxane, 293.15 K): 0.00979 | solubility (mole fraction) (in 1,4-dioxane, 295.65 K): 0.0107 | solubility (mole fraction) (in 1,4-dioxane, 298.15 K): 0.0115 | solubility (mole fraction) (in 1,4-dioxane, 300.65 K): 0.0125 | solubility (mole fraction) (in 1,4-dioxane, 303.15 K): 0.0134 | solubility (mole fraction) (in 1,4-dioxane, 305.65 K): 0.0145 | solubility (mole fraction) (in 1,4-dioxane, 308.15 K): 0.0158 | solubility (mole fraction) (in 1,4-dioxane, 310.65 K): 0.0171 | solubility (mole fraction) (in 1,4-dioxane, 313.15 K): 0.0188 | solubility (mole fraction) (in 1,4-dioxane, 315.65 K): 0.0204 | solubility (mole fraction) (in 1,4-dioxane, 318.15 K): 0.0224 | solubility (mole fraction) (in 1,4-dioxane, 320.65 K): 0.0243 | solubility (mole fraction) (in 1,4-dioxane, 323.15 K): 0.0266 | solubility (mole fraction) (in acetic acid, 288.15 K): 0.000923 | solubility (mole fraction) (in acetic acid, 290.65 K): 0.00104 | solubility (mole fraction) (in acetic acid, 293.15 K): 0.00116 | solubility (mole fraction) (in acetic acid, 295.65 K): 0.0013 | solubility (mole fraction) (in acetic acid, 298.15 K): 0.00145 | solubility (mole fraction) (in acetic acid, 300.65 K): 0.00159 | solubility (mole fraction) (in acetic acid, 303.15 K): 0.00175 | solubility (mole fraction) (in acetic acid, 305.65 K): 0.00189 | solubility (mole fraction) (in acetic acid, 308.15 K): 0.00206 | solubility (mole fraction) (in acetic acid, 310.65 K): 0.00225 | solubility (mole fraction) (in acetic acid, 313.15 K): 0.00248 | solubility (mole fraction) (in acetic acid, 315.65 K): 0.00273 | solubility (mole fraction) (in acetic acid, 318.15 K): 0.00299 | solubility (mole fraction) (in acetic acid, 320.65 K): 0.00328 | solubility (mole fraction) (in acetic acid, 323.15 K): 0.00364 | solubility (mole fraction) (in acetone, 288.15 K): 0.00298 | solubility (mole fraction) (in acetone, 290.65 K): 0.00324 | solubility (mole fraction) (in acetone, 293.15 K): 0.00358 | solubility (mole fraction) (in acetone, 295.65 K): 0.00392 | solubility (mole fraction) (in acetone, 298.15 K): 0.00429 | solubility (mole fraction) (in acetone, 300.65 K): 0.00468 | solubility (mole fraction) (in acetone, 303.15 K): 0.00505 | solubility (mole fraction) (in acetone, 305.65 K): 0.00551 | solubility (mole fraction) (in acetone, 308.15 K): 0.00597 | solubility (mole fraction) (in acetone, 310.65 K): 0.00654 | solubility (mole fraction) (in acetone, 313.15 K): 0.00718 | solubility (mole fraction) (in acetone, 315.65 K): 0.00779 | solubility (mole fraction) (in acetone, 318.15 K): 0.00851 | solubility (mole fraction) (in acetone, 320.65 K): 0.00919 | solubility (mole fraction) (in acetone, 323.15 K): 0.00995 | solubility (mole fraction) (in acetonitrile, 288.15 K): 0.00196 | solubility (mole fraction) (in acetonitrile, 290.65 K): 0.00216 | solubility (mole fraction) (in acetonitrile, 293.15 K): 0.00236 | solubility (mole fraction) (in acetonitrile, 295.65 K): 0.00258 | solubility (mole fraction) (in acetonitrile, 298.15 K): 0.0028 | solubility (mole fraction) (in acetonitrile, 300.65 K): 0.00305 | solubility (mole fraction) (in acetonitrile, 303.15 K): 0.00332 | solubility (mole fraction) (in acetonitrile, 305.65 K): 0.00361 | solubility (mole fraction) (in acetonitrile, 308.15 K): 0.00397 | solubility (mole fraction) (in acetonitrile, 310.65 K): 0.0043 | solubility (mole fraction) (in acetonitrile, 313.15 K): 0.0047 | solubility (mole fraction) (in acetonitrile, 315.65 K): 0.00514 | solubility (mole fraction) (in acetonitrile, 318.15 K): 0.00553 | solubility (mole fraction) (in acetonitrile, 320.65 K): 0.00603 | solubility (mole fraction) (in acetonitrile, 323.15 K): 0.00655 | solubility (mole fraction) (in ethyl acetate, 288.15 K): 0.0021 | solubility (mole fraction) (in ethyl acetate, 290.65 K): 0.00232 | solubility (mole fraction) (in ethyl acetate, 293.15 K): 0.00255 | solubility (mole fraction) (in ethyl acetate, 295.65 K): 0.00284 | solubility (mole fraction) (in ethyl acetate, 298.15 K): 0.00315 | solubility (mole fraction) (in ethyl acetate, 300.65 K): 0.00347 | solubility (mole fraction) (in ethyl acetate, 303.15 K): 0.0038 | solubility (mole fraction) (in ethyl acetate, 305.65 K): 0.00412 | solubility (mole fraction) (in ethyl acetate, 308.15 K): 0.00448 | solubility (mole fraction) (in ethyl acetate, 310.65 K): 0.00484 | solubility (mole fraction) (in ethyl acetate, 313.15 K): 0.00525 | solubility (mole fraction) (in ethyl acetate, 315.65 K): 0.00568 | solubility (mole fraction) (in ethyl acetate, 318.15 K): 0.00617 | solubility (mole fraction) (in ethyl acetate, 320.65 K): 0.00669 | solubility (mole fraction) (in ethyl acetate, 323.15 K): 0.00734 | solubility (mole fraction) (in isobutanol, 288.15 K): 0.000116 | solubility (mole fraction) (in isobutanol, 290.65 K): 0.000128 | solubility (mole fraction) (in isobutanol, 293.15 K): 0.000149 | solubility (mole fraction) (in isobutanol, 295.65 K): 0.000167 | solubility (mole fraction) (in isobutanol, 298.15 K): 0.000189 | solubility (mole fraction) (in isobutanol, 300.65 K): 0.000221 | solubility (mole fraction) (in isobutanol, 303.15 K): 0.000258 | solubility (mole fraction) (in isobutanol, 305.65 K): 0.000296 | solubility (mole fraction) (in isobutanol, 308.15 K): 0.000341 | solubility (mole fraction) (in isobutanol, 310.65 K): 0.000392 | solubility (mole fraction) (in isobutanol, 313.15 K): 0.000457 | solubility (mole fraction) (in isobutanol, 315.65 K): 0.000526 | solubility (mole fraction) (in isobutanol, 318.15 K): 0.000599 | solubility (mole fraction) (in isobutanol, 320.65 K): 0.000679 | solubility (mole fraction) (in isobutanol, 323.15 K): 0.000762 | solubility (mole fraction) (in isopropanol, 288.15 K): 7.27e-05 | solubility (mole fraction) (in isopropanol, 290.65 K): 8.36e-05 | solubility (mole fraction) (in isopropanol, 293.15 K): 9.82e-05 | solubility (mole fraction) (in isopropanol, 295.65 K): 0.000111 | solubility (mole fraction) (in isopropanol, 298.15 K): 0.000132 | solubility (mole fraction) (in isopropanol, 300.65 K): 0.000151 | solubility (mole fraction) (in isopropanol, 303.15 K): 0.000178 | solubility (mole fraction) (in isopropanol, 305.65 K): 0.000208 | solubility (mole fraction) (in isopropanol, 308.15 K): 0.000237 | solubility (mole fraction) (in isopropanol, 310.65 K): 0.000268 | solubility (mole fraction) (in isopropanol, 313.15 K): 0.000305 | solubility (mole fraction) (in isopropanol, 315.65 K): 0.000345 | solubility (mole fraction) (in isopropanol, 318.15 K): 0.000387 | solubility (mole fraction) (in isopropanol, 320.65 K): 0.000445 | solubility (mole fraction) (in isopropanol, 323.15 K): 0.00053 | solubility (mole fraction) (in methanol, 288.15 K): 0.000147 | solubility (mole fraction) (in methanol, 290.65 K): 0.000171 | solubility (mole fraction) (in methanol, 293.15 K): 0.000194 | solubility (mole fraction) (in methanol, 295.65 K): 0.00022 | solubility (mole fraction) (in methanol, 298.15 K): 0.000249 | solubility (mole fraction) (in methanol, 300.65 K): 0.00028 | solubility (mole fraction) (in methanol, 303.15 K): 0.000308 | solubility (mole fraction) (in methanol, 305.65 K): 0.000339 | solubility (mole fraction) (in methanol, 308.15 K): 0.000381 | solubility (mole fraction) (in methanol, 310.65 K): 0.000428 | solubility (mole fraction) (in methanol, 313.15 K): 0.000478 | solubility (mole fraction) (in methanol, 315.65 K): 0.000533 | solubility (mole fraction) (in methanol, 318.15 K): 0.00059 | solubility (mole fraction) (in methanol, 320.65 K): 0.000656 | solubility (mole fraction) (in methanol, 323.15 K): 0.000745 | solubility (mole fraction) (in n-butanol, 288.15 K): 0.000183 | solubility (mole fraction) (in n-butanol, 290.65 K): 0.000204 | solubility (mole fraction) (in n-butanol, 293.15 K): 0.000234 | solubility (mole fraction) (in n-butanol, 295.65 K): 0.000266 | solubility (mole fraction) (in n-butanol, 298.15 K): 0.000308 | solubility (mole fraction) (in n-butanol, 300.65 K): 0.000345 | solubility (mole fraction) (in n-butanol, 303.15 K): 0.000388 | solubility (mole fraction) (in n-butanol, 305.65 K): 0.000432 | solubility (mole fraction) (in n-butanol, 308.15 K): 0.000478 | solubility (mole fraction) (in n-butanol, 310.65 K): 0.000535 | solubility (mole fraction) (in n-butanol, 313.15 K): 0.000597 | solubility (mole fraction) (in n-butanol, 315.65 K): 0.000665 | solubility (mole fraction) (in n-butanol, 318.15 K): 0.00074 | solubility (mole fraction) (in n-butanol, 320.65 K): 0.000821 | solubility (mole fraction) (in n-butanol, 323.15 K): 0.000908 | solubility (mole fraction) (in n-propanol, 288.15 K): 0.000162 | solubility (mole fraction) (in n-propanol, 290.65 K): 0.000187 | solubility (mole fraction) (in n-propanol, 293.15 K): 0.000226 | solubility (mole fraction) (in n-propanol, 295.65 K): 0.000266 | solubility (mole fraction) (in n-propanol, 298.15 K): 0.000311 | solubility (mole fraction) (in n-propanol, 300.65 K): 0.000353 | solubility (mole fraction) (in n-propanol, 303.15 K): 0.000411 | solubility (mole fraction) (in n-propanol, 305.65 K): 0.000468 | solubility (mole fraction) (in n-propanol, 308.15 K): 0.000527 | solubility (mole fraction) (in n-propanol, 310.65 K): 0.000593 | solubility (mole fraction) (in n-propanol, 313.15 K): 0.000668 | solubility (mole fraction) (in n-propanol, 315.65 K): 0.000747 | solubility (mole fraction) (in n-propanol, 318.15 K): 0.00083 | solubility (mole fraction) (in n-propanol, 320.65 K): 0.000917 | solubility (mole fraction) (in n-propanol, 323.15 K): 0.00103
